This passage reports ΔTm and ΔTm profile results from article PMC4239038, “The Potent Cdc7-Dbf4 (DDK) Kinase Inhibitor XL413 Has Limited Activity in Many Cancer Cell Lines and Discovery of Potential New DDK Inhibitor Scaffolds” (PLoS ONE, 2014).

Structures are written as SMILES. Structures can show the parent of a compound that is named as a salt.

The first assay deals with T1, purified DDK (Homo sapiens, UniProt O00311).
T1 construct: His6-Smt3 (SUMO) (N, cleaved yes); made in house; host or cells: E. coli BL21-RIPL (pKT37, pETDuet-1 vector)
T1 sequence (O00311 whole entry): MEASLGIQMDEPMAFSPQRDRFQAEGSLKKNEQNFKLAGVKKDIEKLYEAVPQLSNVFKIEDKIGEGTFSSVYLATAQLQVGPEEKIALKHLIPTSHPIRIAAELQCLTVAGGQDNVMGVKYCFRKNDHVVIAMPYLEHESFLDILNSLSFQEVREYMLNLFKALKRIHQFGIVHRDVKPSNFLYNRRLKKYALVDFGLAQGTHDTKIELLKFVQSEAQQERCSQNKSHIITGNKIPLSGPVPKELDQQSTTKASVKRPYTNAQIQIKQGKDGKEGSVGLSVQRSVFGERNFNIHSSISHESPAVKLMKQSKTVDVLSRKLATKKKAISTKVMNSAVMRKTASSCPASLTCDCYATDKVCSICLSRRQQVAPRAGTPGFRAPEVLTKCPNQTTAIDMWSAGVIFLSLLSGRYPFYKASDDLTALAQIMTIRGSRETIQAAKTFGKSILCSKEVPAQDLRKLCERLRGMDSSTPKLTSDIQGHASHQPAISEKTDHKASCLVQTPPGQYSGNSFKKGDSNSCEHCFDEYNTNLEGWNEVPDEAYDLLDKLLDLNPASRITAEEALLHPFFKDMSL
T1 sequence (Q9UBU7 341-674 partner limits assumed): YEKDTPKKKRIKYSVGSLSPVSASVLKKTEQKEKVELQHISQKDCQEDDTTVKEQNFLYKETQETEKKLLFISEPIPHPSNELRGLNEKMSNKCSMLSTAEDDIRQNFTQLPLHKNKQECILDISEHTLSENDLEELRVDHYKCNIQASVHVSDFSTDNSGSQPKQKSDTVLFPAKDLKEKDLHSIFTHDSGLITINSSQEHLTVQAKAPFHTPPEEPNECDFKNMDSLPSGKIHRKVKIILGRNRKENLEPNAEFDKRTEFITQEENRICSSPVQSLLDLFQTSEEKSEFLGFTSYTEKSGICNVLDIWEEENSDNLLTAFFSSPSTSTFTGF
Kind of assay: DDK thermal stability shift assay (TSA). The assay is classed as binding. Conditions: library screen, 20 µM compound.
Consider `O=c1[nH]c2ccccc2n1C1CCN(Cc2ccc(-c3nc4cc5nc[nH]c5cc4nc3-c3ccccc3)cc2)CC1`, for which the ΔTm was 0 °C. The same measure, in the same setting: next, `COc1cc2ncnc(N3CCN(C(=O)Nc4ccc(Oc5ccccc5)cc4)CC3)c2cc1OC`: 0 °C; `COc1cc2c(cc1OC)-c1[nH]nc(Nc3cccc(F)c3)c1C2`: 0.3 °C; `O=C1Cc2c([nH]c3ccc(Br)cc23)-c2ncccc2N1` [1-Azakenpaullone]: 0.6 °C. Same read-out and setting: the result for `Cc1ncc2ccccc2c1C#N` [4-Cyano-3-methylisoquinoline] reads 0 °C; that for `Nc1ncnc2c1c(I)cn2[C@@H]1O[C@H](CO)[C@@H](O)[C@H]1O` [5-Iodotubercidin], 1.9 °C; that for `CCN(CC)CCCCN1c2ccccc2Oc2ccc(Cl)cc21.Cl` [10-DEBC hydrochloride], 0.8 °C. Same read-out and setting: the result for `CC(C)(C)c1cc(C=C(C#N)C#N)cc(Br)c1O` [AG 1024] reads 1.2 °C; that for `COc1cc2ncc(-c3ccccc3)nc2cc1OC` [AG 1296], 0 °C. Take `COc1cc2ncnc(Nc3cccc(Cl)c3)c2cc1OC` [AG 1478]: the ΔTm was found to be 0.3 °C. With `Cc1nc2cc3nc(-c4cccs4)cnc3cc2n1C` [AGL 2043], the ΔTm stood at 0 °C. Same read-out and setting: next, `O=c1cc(-c2cccc3c2Sc2ccccc2S3)oc(N2CCOCC2)c1` [ATM Kinase Inhibitor]: 1.1 °C. On to `CCN(CC)CCCCN1c2ccccc2Oc2ccc(Cl)cc21` [Akt Inhibitor X], for which the ΔTm at 20 µM was 0.3 °C.

Regarding `O=C1Cc2c([nH]c3ccc([N+](=O)[O-])cc23)-c2ccccc2N1` [Alsterpaullone], the ΔTm at 20 µM amounted to 0.5 °C. For `O=C1NC(=O)c2c1c1c3ccccc3[nH]c1c1[nH]c3ccccc3c21` [Arcyriaflavin A], the ΔTm came out at 0.5 °C. Same read-out and setting: next, `Cc1ccc(S(=O)(=O)/C=C/C#N)cc1` [BAY 11-7082]: 0 °C. On the same count and under the same terms, next, `CN1CCC(Nc2ncc3ncnc(Nc4ccc(F)c(Cl)c4)c3n2)CC1.Cl.Cl` [BIBX 1382 dihydrochloride]: 0.8 °C; `Cn1cnc2cc3c(Nc4cccc(Br)c4)ncnc3cc21` [BPIQ-I]: 0.2 °C. In the case of `O=C1NC(=O)c2cc(Nc3ccc(F)cc3)c(Nc3ccc(F)cc3)cc21` [CGP 53353], the ΔTm at 20 µM turned out to be 0.4 °C. As to `O=C(O)/C=C/c1cc(Br)c(Br)c(Br)c1Br` [Casein Kinase II Inhibitor III, TBCA], the ΔTm was 32 °C.

Consider `O=C1N=C(NCc2cccs2)SC1=Cc1ccc2ncccc2c1` [Cdk1 Inhibitor IV, RO-3306, 5-(6-Quinolinylmethylene)-2-[(2-thienylmethyl)amino]-4(5H)-thiazolone], for which the thermal shift (ΔTm) came out at 2.2 °C.

For the molecule `CCN(CC)C(=O)c1ccc(Nc2nc(OCC3CCCCC3)c3[nH]cnc3n2)cc1` [Cdk2 Inhibitor IV, NU6140], the ΔTm came to 0.2 °C.

Turning to `Cc1nc(N)sc1-c1ccnc(Nc2cccc([N+](=O)[O-])c2)n1` [Cdk2/9 Inhibitor], the ΔTm was 0.3 °C. Same read-out and setting: next, `Cc1ccc2c(=O)c3ccccc3n(CCCN)c2c1C.O=C(O)/C=C\C(=O)O` [ER 27319 maleate]: 0.5 °C; `Nc1[nH]nc2nnc(-c3c(-c4ccccc4)nn4ccccc34)cc12` [ERK Inhibitor II, FR180204]: 0 °C. As for `O=S(=O)(c1cccc2cnccc12)N1CCCNCC1` [Fasudil hydrochloride], the ΔTm at 20 µM is 0.9 °C. As for `c1ccc(-c2cnc(Nc3ccc(OCCN4CCCC4)cc3)s2)cc1` [Flt-3 Inhibitor III], the thermal shift (ΔTm) stood at 0.3 °C.

On to `O=C1Nc2ccc(I)cc2C1=Cc1cc(Br)c(O)c(Br)c1` [GW 5074, 3-(3,5-Dibromo-4-hydroxy-benzylidene)-5-iodo-1,3-dihydro-indol-2-one], for which the ΔTm was determined as 3.5 °C. Still for that read-out and setting: next, `CNCCNS(=O)(=O)c1cccc2cnccc12.Cl.Cl` [H-8, Dihydrochloride]: 0.5 °C; `Cl.Cl.NC(N)=NCCNS(=O)(=O)c1cccc2cnccc12` [HA 1004, Dihydrochloride]: 0 °C; `O=C(c1ccc(Nc2nccc(-c3cc4ccccc4s3)n2)cc1)N1CCC(N2CCCC2)CC1` [IKK 16]: 1.5 °C. Still for that read-out and setting: next, `O=C(c1ccc(Nc2nccc(-c3cc4ccccc4s3)n2)cc1)N1CCC(N2CCCC2)CC1` [IKK Inhibitor VII]: 1.7 °C; `O=C(Nc1cc(Cl)cc2c1[nH]c1cnccc12)c1cccnc1` [IKK Inhibitor X]: 0 °C.

In the case of `N#Cc1c(C2CCNCC2)cc(-c2c(O)cccc2OCC2CC2)nc1N` [IKK-2 Inhibitor VIII], the thermal shift (ΔTm) was found to be 1.9 °C. For the molecule `NC(=O)Nc1sc(-c2ccccc2)cc1C(N)=O` [IKK-2 Inhibitor VI], the ΔTm came to 1.2 °C. The same measure, in the same setting: next, `NC(=O)Nc1cc(-c2ccccc2)sc1C(N)=O` [IKK-2 Inhibitor XI]: 0.3 °C; `O=C1Nc2ccc(I)cc2/C1=C1/Nc2ccccc2/C1=N\O` [Indirubin-3'-monoxime, 5-Iodo-]: 0.5 °C. With `O=C1NC(=O)c2c1c1c3ccccc3[nH]c1n1cncc21` [Isogranulajmide], the ΔTm at 20 µM came out at 1 °C. As to `Cn1nc2c3c(cccc31)C(=O)c1ccccc1-2` [JNK Inhibitor, Negajve Control], the shift in melting temperature (ΔTm) was 0 °C. Still for that read-out and setting: the result for `CCCCCCOC(=O)[C@]1(O)C[C@@H]2O[C@@]1(C)n1c3ccccc3c3c4c(c5c6ccccc6n2c5c31)C(=O)NC4` [KT5720] reads 0.2 °C. The same measure, in the same setting: the result for `COc1cc2nccc(Oc3ccc(NC(=O)Nc4ccc(F)cc4F)c(F)c3)c2cc1OC` [Ki 8751] reads 0.2 °C. Consider `C/C(O)=C(\C#N)C(=O)Nc1cc(Br)ccc1Br` [LFM-A13], for which the ΔTm is 0 °C. Still for that read-out and setting: the result for `Cl.O=c1cc(N2CCOCC2)oc2c(-c3ccccc3)cccc12` [LY 294002 hydrochloride] reads 0.8 °C. With `O=c1cc(N2CCOCC2)oc2c(-c3ccccc3)cccc12` [LY 294002], the ΔTm at 20 µM was 0.8 °C.

For the molecule `O=c1cc(N2CCNCC2)oc2c(-c3ccccc3)cccc12` [LY 303511], the ΔTm at 20 µM stood at 0.1 °C.

For `Cl.O=S(=O)(c1cccc2c(Cl)cccc12)N1CCCNCC1` [ML 9 hydrochloride], the ΔTm was found to be 0.6 °C.

Consider `Cl.O=S(=O)(c1cccc2c(I)cccc12)N1CCCNCC1` [ML-7, Hydrochloride], for which the ΔTm stood at 0.3 °C. Same read-out and setting: the result for `Cc1[nH]c(/C=C2\C(=O)Nc3ccc(S(=O)(=O)N(C)c4cccc(Cl)c4)cc32)c(C)c1C(=O)N1CCN(C)CC1` [Met Kinase Inhibitor] reads 0.2 °C; that for `Nc1ccc2ncnc(NCCc3ccc(Oc4ccccc4)cc3)c2c1` [NF-kB Acjvajon Inhibitor], 0.3 °C.

`CC[C@H](CO)Nc1nc(NCc2ccccc2O)c2ncn(C(C)C)c2n1` [Olomoucine II]: the ΔTm at 20 µM worked out at 0.2 °C. With `Cn1cnc2c(NCc3ccccc3)nc(NCCO)nc21` [Olomoucine], the ΔTm at 20 µM was 0.1 °C. `CNc1cc2c(Nc3cccc(Br)c3)ncnc2cn1` [PD 158780]: the ΔTm is 0.2 °C.

In the case of `Cc1[nH]c(/C=C2\C(=O)Nc3ccc(S(=O)(=O)Cc4c(Cl)cccc4Cl)cc32)c(C)c1C(=O)N1CCC[C@@H]1CN1CCCC1` [PHA 665752], the ΔTm at 20 µM turned out to be 0.4 °C. For the molecule `Cc1cc(C(C)Nc2ccccc2)c2nc(N3CCOCC3)cc(=O)n2c1` (centres unmarked) [PI 3-Kβ Inhibitor VI, TGX-221], the ΔTm came to 0 °C. Same read-out and setting: the result for `O=C1NC(=O)C(=Cc2ccc(-c3ccc(F)cc3O)o2)S1` [PI 3-Kγ/CKII Inhibitor] reads 0.3 °C; that for `Nc1ccc(-c2cccc3c(=O)cc(N4CCOCC4)oc23)cc1` [PI 828], 0.6 °C; that for `CCCOc1ccc(/C=C2/SC(=O)NC2=O)cc1` [PIM1/2 Kinase Inhibitor VI], 0.2 °C. `O=C1NC(=O)C(c2cn(CCCn3ccnc3)c3ccccc23)=C1Nc1ccccc1` [PKCb Inhibitor]: the ΔTm turned out to be 0.2 °C. On the same count and under the same terms, next, `O=C1Nc2ccc(Cl)cc2/C1=C/c1cc(Cl)c(O)c(Cl)c1` [PKR Inhibitor, NegaKve Control]: 0.2 °C.

For `Nc1ncnc2c1cnn2-c1ccccc1` [PP3], the ΔTm came to 0.6 °C. As to `CC(C)[C@H](CO)Nc1nc(Nc2cccc(Cl)c2)c2ncn(C(C)C)c2n1` [Purvalanol A], the ΔTm at 20 µM stood at 0.2 °C.

Consider `CO[C@H]1C[C@@H]2CC[C@@H](C)[C@@](O)(O2)C(=O)C(=O)N2CCCC[C@H]2C(=O)O[C@H]([C@H](C)C[C@@H]2CC[C@@H](O)[C@H](OC)C2)CC(=O)[C@H](C)/C=C(\C)[C@@H](O)[C@@H](OC)C(=O)[C@H](C)C[C@H](C)/C=C/C=C/C=C/1C` [Rapamycin], for which the ΔTm at 20 µM was found to be 0 °C. As to `COc1ccc2nc3c(c(C)nn3C)c(NCCOCCO)c2c1` [Ras/Rac TransformaEon Blocker, SCH 51344], the ΔTm was found to be 0.5 °C.

Staying with this assay, now noted: library screen, 20 µM compound; 20 µM.
Consider `O=C(NC(NC(=S)Nc1ccc(F)c([N+](=O)[O-])c1)C(Cl)(Cl)Cl)C(c1ccccc1)c1ccccc1` (centres unmarked) [CGK 733], for which the ΔTm stood at 0.2 °C. Same read-out and setting: next, `Nc1ncnc2n[nH]c(Nc3ccc(F)cc3)c12` [CGP 57380]: 0.5 °C; `O=c1cc(N2CCOCC2)oc2c1ccc1ccccc12` [DNA-PK Inhibitor II]: 1 °C. Take `CN(C)CCCn1cc(C2=C(c3c[nH]c4ccccc34)C(=O)NC2=O)c2ccccc21` [GF 109203X]: the ΔTm is 0.6 °C.

Turning to `Cl.Cl.O=S(=O)(NCCNC/C=C/c1ccc(Br)cc1)c1cccc2cnccc12` [H 89 dihydrochloride], the thermal shift (ΔTm) came out at 0.3 °C.

For `Nc1[nH]nc2nc3ccccc3nc12` [NSC 693868], the ΔTm turned out to be 0.2 °C.

As to `O=c1cc(N2CCOCC2)oc2c1ccc1ccccc12` [NU 7026], the ΔTm is 1.2 °C.

The same assay, now with this note: titration across a 200-fold range of inhibitor concentrations.
On to `O=c1c(-c2ccc(O)cc2)coc2cc(O)cc(O)c12` [Genistein, 5,7-Dihydroxy-3-(4-hydroxyphenyl)-4H-1-benzopyran-4-one], for which the ΔTm profile result was “increased ΔTm at lower inhibitor concentrations and then decreased ΔTm at 5, 10 and 20 µM concentrations”.

One may read the ΔTm as the shift of the melting midpoint relative to a reference.
